Test results reported in US20210087620A1, “Target Gene Identifying Method for Tumor Treatment” (Samsung Life Public Welfare Foundation Samsung Life Public …, priority 2017, published 2021).

Columns and labels:
[1] = test system: right tumor-derived cells of the GBM9 patient; experiment: PDC-based chemical screening (ATP cell viability, dose-response AUC), right tumor; set-up: species or system human; details: GBM9 right tumor PDCs
Method: (§1) According to one embodiment, the measuring of drug sensitivity of each sample by subjecting the multiple samples to drug screening may include obtaining a cell viability curve of each sample according to a dose of each drug; and calculating an area under the curve.
(§2) GBM9 patient had tumors in the right and left frontal lobes of the brain, respectively. In this regard, 40 kinds of anticancer agents were administered to samples collected from the respective tumors, and tumor cell viability was examined.
(§3) When a curve of tumor cell viability vs drug dose is plotted, an area under the curve (AUC) may be used as an index of drug sensitivity. […]
(§4) PDCs grown in serum-free medium were seeded in 384 well plates at a density of 500 cells per well in duplicate or triplicate. […] After 6 days of incubation at 37° C. in a 5% CO2 humidified incubator, cell viability was analyzed using an adenosine triphosphate (ATP) monitoring system based on firefly luciferase (ATPLite™ 1step, PerkinElmer). At this time, viable cells were estimated using an EnVision Multilabel Reader (PerkinElmer). […] DRC fitting was performed using GraphPad Prism 5 (GraphPad) and evaluated by measuring an area under the curve (AUC) of dose response curve. After normalization, best-fit lines were determined and the AUC value of each curve was calculated using a GraphPad Prism. […]

[2] = test system: left tumor-derived cells of the GBM9 patient; experiment: PDC-based chemical screening (ATP cell viability, dose-response AUC), left tumor; set-up: species or system human; details: GBM9 left tumor PDCs
Method: as §1, §2, §3, §4

[3] = 6 days, 20 μM to 4.88 nM, FIG. 6

Compound: Nc1cc(C(F)(F)F)c(-c2cc(N3CCOCC3)nc(N3CCOCC3)n2)cn1 [BKM120, Buparlisib]
- survival rate of tumor cells with increasing drug dose [1, 3]: survival rates of the two tumors decreased
- area under the curve (AUC) of cell viability vs dose (low AUC = high drug sensitivity) ([1]; FIG. 6, FIG. 7): relatively low
- survival rate of tumor cells with increasing drug dose [2, 3]: survival rates of the two tumors decreased
- area under the curve (AUC) of cell viability vs dose (low AUC = high drug sensitivity) ([2]; FIG. 6, FIG. 7): relatively low
